Results from patent US8722589B2, “Use of 1-alkyl-5-oxopyrrolidine-3-carboxylic esters as gas hydrate inhibitors with improved biodegradability” (Clariant Finance (BVI) Limited, priority 2007, dated 2014).

test: Agglomerate inhibition in stirred autoclave (water/white spirit/natural gas); conditions: 5000 ppm based on water phase; water and white spirit 1:2; 50 bar; 500 rpm; 4° C.
Experimental: (§1) To investigate the inhibiting action of the 1-alkyl-5-oxopyrrolidine-3-carboxylic esters, a stirred steel autoclave with temperature control, pressure and torque sensor of capacity 450 ml was used. For studies of kinetic inhibition, the autoclave was filled with distilled water and gas in a volume ratio of 20:80; for studies of agglomerate inhibition, condensate was additionally added. Subsequently, 50 bar of natural gas were injected.
(§2) The measure used for the inhibiting action of the product is the time from the attainment of the minimum temperature of 4° C. until the first gas absorption (Tind) or the time until the torque rises (Tagg). Long induction times or agglomeration times indicate an effect as a kinetic inhibitor. The torque measured in the autoclave serves, in contrast, as a parameter for the agglomeration of the hydrate crystals.
In order to test the action as agglomerate inhibitors, the test autoclave used above was initially charged with water and white spirit (20% of the volume in a ratio of 1:2) and, based on the water phase, 5000 ppm of the particular additive were added.
At an autoclave pressure of 50 bar and a stirrer speed of 500 rpm, the temperature was cooled from initially 20° C. within 3 hours to 4° C., then the autoclave was stirred at 4° C. for 18 hours and heated up again. In the course of this, the agglomeration time up to occurrence of gas hydrate agglomerates and the torque which occurred on the stirrer at that time were measured, the latter being a measure of the agglomeration of the gas hydrates.
The comparative substance employed was a commercially available antiagglomerant (quaternary ammonium salt).

| Compound | Mmax (torque on the stirrer) | Tagg (agglomeration time up to occurrence of gas hydrate agglomerates) |
| --- | --- | --- |
| CCCCCCCC/C=C\CCCCCCCCN1CC(C(=O)OCC(C)C)CC1=O (stereo not shown) [Example 19, isobutyl 1-oleyl-5-oxopyrrolidine-3-carboxylate] | 1.2 Ncm | 6.0 h |
| CCCCCCCC/C=C\CCCCCCCCN1CC(C(=O)OCC(CC)CCCC)CC1=O (stereo not shown) [Example 20, 2-ethylhexyl 1-oleyl-5-oxopyrrolidine-3-carboxylate] | 2.1 Ncm | 3.5 h |
| CCCCCCCC/C=C\CCCCCCCCN1CC(C(=O)OCC(COC(=O)C2CC(=O)N(CCCCCCCC/C=C\CCCCCCCC)C2)OC(=O)C2CC(=O)N(CCCCCCCC/C=C\CCCCCCCC)C2)CC1=O (stereo not shown) [Example 21, glyceryl tri(1-oleyl-5-oxopyrrolidine-3-carboxylate)] | 2.0 Ncm | 2.9 h |
| CCCCCCCC/C=C\CCCCCCCCN1CC(C(=O)OCC(CO)(CO)COC(=O)C2CC(=O)N(CCCCCCCC/C=C\CCCCCCCC)C2)CC1=O (stereo not shown) [Example 22, pentaerythrityl di(1-oleyl-5-oxopyrrolidine-3-carboxylate)] | 1.9 Ncm | 3.8 h |
| CCCCCCCC/C=C\CCCCCCCCN1CC(C(=O)OCC(CO)(COCC(CO)(COC(=O)C2CC(=O)N(CCCCCCCC/C=C\CCCCCCCC)C2)COC(=O)C2CC(=O)N(CCCCCCCC/C=C\CCCCCCCC)C2)COC(=O)C2CC(=O)N(CCCCCCCC/C=C\CCCCCCCC)C2)CC1=O (stereo not shown) [Example 23, dipentaerythrityl tetra(1-oleyl-5-oxopyrrolidine-3-carboxylate)] | 2.0 Ncm | 3.8 h |
| (oleyl alcohol+5 EO) 1-isobutyl-5-oxopyrrolidine-3-carboxylate [Example 16] | 1.0 Ncm | 5.9 h |
| (oleyl alcohol+5 EO) 1-methyl-5-oxopyrrolidine-3-carboxylate [Example 7] | 0.9 Ncm | 6.5 h |

test: Biodegradability to OECD 306; conditions: not given

| Compound | Biodegradability 28 days (OECD 306) |
| --- | --- |
| CN1CC(C(=O)OCC(COC(=O)C2CC(=O)N(C)C2)OC(=O)C2CC(=O)N(C)C2)CC1=O (stereo not shown) [Example 3, glyceryl tri(1-methyl-5-oxopyrrolidine-3-carboxylate)] | 90 |
| CC(C)CN1CC(C(=O)OCC(COC(=O)C2CC(=O)N(CC(C)C)C2)OC(=O)C2CC(=O)N(CC(C)C)C2)CC1=O (stereo not shown) [Example 12, glyceryl tri(1-isobutyl-5-oxopyrrolidine-3-carboxylate)] | 85 |

test: Kinetic gas hydrate inhibition in stirred steel autoclave (water/natural gas); conditions: 5000 ppm based on water phase; 50 bar natural gas; cooled 20° C. to 4° C.; water:gas 20:80
Experimental: as §1
At first, a pressure decrease corresponding to the thermal compression of the gas is observed. When the formation of gas hydrate nuclei occurs during the cooling time, the pressure measured falls, and a rise in the torque measured and a slight increase in the temperature are observed. […] When the mixture is heated, the gas hydrates decompose, so that the starting state of the experimental series is attained.
as §2
Composition of the natural gas used:
The dosage in all tests was 5000 ppm based on the water phase.

| Compound | Tagg (time until the torque rises) | Tind (time from attainment of 4° C. until first gas absorption) |
| --- | --- | --- |
| CC(C)COC(=O)C1CC(=O)N(C)C1 (stereo not shown) [Example 1, isobutyl 1-methyl-5-oxopyrrolidine-3-carboxylate] | 11.0 h | 10.9 h |
| CCCCC(CC)COC(=O)C1CC(=O)N(C)C1 (stereo not shown) [Example 2, 2-ethylhexyl 1-methyl-5-oxopyrrolidine-3-carboxylate] | 11.7 h | 11.5 h |
| CN1CC(C(=O)OCC(COC(=O)C2CC(=O)N(C)C2)OC(=O)C2CC(=O)N(C)C2)CC1=O (stereo not shown) [Example 3, glyceryl tri(1-methyl-5-oxopyrrolidine-3-carboxylate)] | 12.5 h | 12.0 h |
| CN1CC(C(=O)OCC(CO)(CO)COC(=O)C2CC(=O)N(C)C2)CC1=O (stereo not shown) [Example 4, pentaerythritol di(1-methyl-5-oxopyrrolidine-3-carboxylate)] | 11.5 h | 11.4 h |
| CN1CC(C(=O)OCC(CO)(COCC(CO)(COC(=O)C2CC(=O)N(C)C2)COC(=O)C2CC(=O)N(C)C2)COC(=O)C2CC(=O)N(C)C2)CC1=O (stereo not shown) [Example 5, dipentaerythrityl tetra(1-methyl-5-oxopyrrolidine-3-carboxylate)] | 10.1 h | 10.0 h |
| CCCCOCCOCCOCCOC(=O)C1CC(=O)N(C)C1 (stereo not shown) [Example 6, butyltriglycol 1-methyl-5-oxopyrrolidine-3-carboxylate] | 13.4 h | 13.1 h |
| CC(C)COC(=O)C1CC(=O)N(CC(C)C)C1 (stereo not shown) [Example 10, isobutyl 1-isobutyl-5-oxopyrrolidine-3-carboxylate] | 17.0 h | 16.1 h |
| CCCCC(CC)COC(=O)C1CC(=O)N(CC(C)C)C1 (stereo not shown) [Example 11, 2-ethylhexyl 1-isobutyl-5-oxopyrrolidine-3-carboxylate] | 18.3 h | 17.5 h |
| CC(C)CN1CC(C(=O)OCC(COC(=O)C2CC(=O)N(CC(C)C)C2)OC(=O)C2CC(=O)N(CC(C)C)C2)CC1=O (stereo not shown) [Example 12, glyceryl tri(1-isobutyl-5-oxopyrrolidine-3-carboxylate)] | 18.8 h | 18.1 h |
| CC(C)CN1CC(C(=O)OCC(CO)(CO)COC(=O)C2CC(=O)N(CC(C)C)C2)CC1=O (stereo not shown) [Example 13, pentaerythrityl di(1-isobutyl-5-oxopyrrolidine-3-carboxylate)] | 17.4 h | 16.9 h |
| CCCCOCCOCCOCCOC(=O)C1CC(=O)N(CC(C)C)C1 (stereo not shown) [Example 15, butyltriglycol 1-isobutyl-5-oxopyrrolidine-3-carboxylate] | 17.2 h | 16.1 h |
| dipentaerythrityl tetra(1-isobutyl-5-oxopyrrolidine-3-carboxylate) [Example 14] | 15.9 h | 15.3 h |
